One may read the IC50 as the concentration at which inhibition is half-maximal. Higher therefore signals weaker potency in that assay.

Consider four compounds from ChEMBL document CHEMBL1158945, “Four Novel Diterpenoids: Clavirolides B, C, D, and E from the Chinese Soft Coral Clavularia viridis” (J Nat Prod, 1991).

The nature of series [1]: Cytotoxicity against mouse EAC cells. As to conditions: Ehrlich. The format is functional, cell-based.
For another series, the species on record is Oryctolagus cuniculus. Kind of series: Blocked of calcium channel in rabbit smooth muscle. The format is tissue-based. To be noted: Muscle tissue.
The next series deals with Rattus norvegicus. The series is described as follows: Decrease in blood pressure in rat at 45 uM/kg. The series is classed as organism-based.
A further series concerns Heart. Kind of series: Toxicity in isolated guinea pig heart assessed as bradycardia at 45 uM/kg. The series is classed as tissue-based, Cavia porcellus. As to conditions: ex_vivo.
A short description of series [2]: Negative inotropic activity in guinea pig atria muscle at 36 uM. The series is classed as functional, Cavia porcellus, Muscle tissue.

In brackets after ≈: the same amount, converted by molar mass.

In turn, `CC1=C2CC[C@@]3(C)C/C=C(/C)CC(=O)C[C@@H](C)C[C@@H](OC1=O)[C@H]23` [CLAVULACTONE] yielded an IC50 in series [1] of 8 µg/mL (≈ 25.3 µM).

Take `CC1=C2CC[C@@]3(C)CC/C(C)=C\C(=O)C[C@@H](C)C[C@@H](OC1=O)[C@H]23` [CLAVIROLIDE D]: the IC50 in series [1] came out at 11.7 µg/mL (≈ 37 µM). For the same compound, the pD2 in the series filed under Oryctolagus cuniculus is 4.79.

In turn, `CC1=C2CC[C@@]3(C)C/C=C(\C)CC(=O)C[C@@H](C)C[C@@H](OC1=O)[C@H]23` [CLAVIROLIDE B] displayed an IC50 in series [1] of 21 µg/mL (≈ 66.4 µM). Further, the pD2 in the series listed under Oryctolagus cuniculus is 4.68.

On to `CC1=C2CC[C@@]3(C)CC[C@H](C)CC(=O)C[C@@H](C)C[C@@H](OC1=O)[C@H]23` [CLAVIROLIDE C], for which the Activity in the series on Rattus norvegicus is recorded as 24 mmHg; in the series on Heart it was 43.7%; in series [2], 50%. This compound also yielded an IC50 in series [1] of 27 µg/mL (≈ 84.8 µM). Besides, the pD2 in the series listed under Oryctolagus cuniculus came to 5.48.
